Entries after “also recorded” stand apart in the source; their conditions may differ.
Experiments:
[1] = system: HDAC (HeLa nuclear extract); test: HDAC Inhibitor Drug Screening Kit (fluorometric, Biovision K340-100); format: biochemical; details: for Inhibition at 10 μM (%) / Inhibition at 500 μM (%): mean of 3 independent measurements, SD <10%; for IC50: HDAC inhibitory activity
Procedure: The N^1-phenylpyrazole derivatives 1a (the isomer with the connection unit at C5) and 1b (the isomer with the connection unit at C3) were evaluated for their ability to inhibit the HDAC activity to have a preliminary insight about the SAR of this set of compounds. […] Therefore, the development of the other two derivatives of this class, i.e., the p-CN-phenyl derivative 2 and the p-Br-phenyl derivative 3, was focused on the single isomer C5-substituted. As for 1a, the detected inhibitory activity of 2 and 3 was in the low micromolar range (6.3 µM and 1.6 µM, respectively; Table 1).

[2] = system: neuroblastoma SH-SY5Y tumor cell line; test: MTT antiproliferative assay; format: cell-based, Human; details: SH-SY5Y cells; for antiproliferative effect (in words): 1–50 µM, 24, 48 and 72 h; for antiproliferative effect (in words) / inhibition at 25 µM: MTT; for inhibition at 25 µM / IC50: Homo sapiens; for inhibition at 25 µM: after 72 h, read-out: inhibition of cell proliferation; for IC50: MTT test
Procedure: Human neuroblastoma cell line SH-SY5Y was originally obtained from ATCC (Rockville, MD, USA). Cells were cultured as previously reported. Briefly, we employed RPMI 1640 medium with 10% heat-inactivated fetal bovine serum (FBS), 2 mM L-glutamine, 1 mM sodium pyruvate, 100 IU/mL penicillin and 100 μg/mL streptomycin at 37 °C in a humidified atmosphere with 5% CO2. All the reagents for cell culture were from Carlo Erba (Milan, Italy). For biological investigations, compounds 1a, 2 and 3 were solubilized in dimethyl sulfoxide (DMSO) to obtain stock solutions at a final concentration of 50 mM that were stored at −20 °C. Just prior use, aliquots were diluted in medium to the final concentrations ranging from 1 to 50 μM.
The abovementioned compounds were evaluated by the MTT assay to assess their anti-proliferative activity, as reported by Ferlazzo et al. Cells were seeded at a density of 5 × 10^3 cell/well in 96-well plates and incubated overnight at 37 °C. In treated cells, the medium was then replaced with a fresh one in which the compounds were diluted from 1 to 50 µM. Untreated cells together with ones exposed to DMSO 0.1% served as control and solvent control, respectively. After incubation for 24, 48, and 72 h, plates were firstly centrifuged, then the medium was removed, and a solution of 3-(4,5-dimethylthiazole-2-yl)-2,5-diphenyltetrazolium bromide (MTT; Sigma-Aldrich, Milan, Italy) at a concentration of 0.5 mg/mL in fresh medium (w/o phenol red) was added. Plates were incubated for further 4h. Afterward, MTT solution was removed, and the obtained formazan crystals were solubilized in 100 µL of a lysis buffer consisting of HCl/isopropanol 0.1 N and regularly shaken. Optical density was measured employing a microplate reader (iMark™, Bio-Rad Laboratories, Milan, Italy) at 595 nm. All experiments were carried out in eight replicates for three times. Results are expressed as the percentage of viable cells compared to untreated cells.

Row | Compound | IC50 [1] | IC50 [2] | Inhibition at 10 μM (%) [1] | Inhibition at 500 μM (%) [1] | antiproliferative effect (in words) [2] | antiproliferative effect (in words) ([2]; listed as 2a) | inhibition at 25 µM [2]
1 | Cc1cc(C(=O)Nc2ccc(/C=C/C(=O)NO)cc2)n(-c2ccc(C#N)cc2)n1 [Compound 2, (E)-1-(4-cyanophenyl)-N-(4-(3-(hydroxyamino)-3-oxoprop-1-enyl)phenyl)-3-methyl-1H-pyrazole-5-carboxamide] | 6.3 ± 0.3 µM |  | 51% | 88% | inactive | None of the tested concentrations; also recorded: No antiproliferative effect | 
2 | Cc1cc(C(=O)Nc2ccc(/C=C/C(=O)NO)cc2)n(-c2ccc(Br)cc2)n1 [Compound 3, (E)-1-(4-bromophenyl)-N-(4-(3-(hydroxyamino)-3-oxoprop-1-enyl)phenyl)-3-methyl-1H-pyrazole-5-carboxamide] | 1.6 ± 0.2 µM | 5.61 µM | 74% | 88% |  |  | > 75%
3 | CC(/C=C/C(=O)NO)=C\[C@@H](C)C(=O)c1ccc(N(C)C)cc1 [TSA, Trichostatin A, reference compound] | 3.4 ± 0.2 µM |  |  |  |  |  | 
4 | O=C(/C=C/c1ccc(NC(=O)c2cc(-c3ccccc3)[nH]n2)cc1)NO [Compound 4, (E)-N-(4-(3-(hydroxyamino)-3-oxoprop-1-enyl)phenyl)-5-phenyl-1H-pyrazole-3-carboxamide] | 155 ± 2.8 µM |  | 13% | 71% |  |  | 
5 | O=C(/C=C/c1ccc(NC(=O)c2cc(-c3ccc(Br)cc3)[nH]n2)cc1)NO [Compound 5, (E)-5-(4-bromophenyl)-N-(4-(3-(hydroxyamino)-3-oxoprop-1-enyl)phenyl)-1H-pyrazole-3-carboxamide] | > 500 µM |  |  | 15% |  |  | 
6 | O=C(/C=C/c1ccc(NC(=O)c2n[nH]c3c2Cc2ccccc2-3)cc1)NO [Compound 6, (E)-N-(4-(3-(hydroxyamino)-3-oxoprop-1-enyl)phenyl)-1,4-dihydroindeno[1,2-c]pyrazole-3-carboxamide] | 46.5 ± 1.5 µM |  | 29% | 87% |  |  | 

The next lines start with results.

Row | IC50 [1] | IC50 [2] | Compound | Inhibition at 10 μM (%) [1] | Inhibition at 500 μM (%) [1] | antiproliferative effect (in words) [2] | antiproliferative effect (in words) ([2]; listed as 2a) | inhibition at 25 µM [2]
7 | > 500 µM |  | Cc1cc(C(=O)Nc2ccc(/C=C/C(=O)NO)cc2)nn1-c1ccccc1 [Compound 1b, (E)-N-(4-(3-(hydroxyamino)-3-oxoprop-1-enyl)phenyl)-5-methyl-1-phenyl-1H-pyrazole-3-carboxamide] | 6% | 30% |  |  | 
8 | 7.1 ± 0.5 µM | 5.34 µM | Cc1cc(C(=O)Nc2ccc(/C=C/C(=O)NO)cc2)n(-c2ccccc2)n1 [Compound 1a, (E)-N-(4-(3-(hydroxyamino)-3-oxoprop-1-enyl)phenyl)-3-methyl-1-phenyl-1H-pyrazole-5-carboxamide] |  | 86% |  |  | > 75%

Source: publication PMC6412695, “Hydroxamic Acid-Based Histone Deacetylase (HDAC) Inhibitors Bearing a Pyrazole Scaffold and a Cinnamoyl Linker” (International Journal of Molecular Sciences, 2019)
